Source: patent publication US20250206773A1, “FORMS AND COMPOSITIONS OF SODIUM CHENODEOXYCHOLATE” (Syntis Bio, Inc., priority 2022, published 2025)
Like-named read-outs stand apart in the source and are kept apart here.

Tests used:
[1] = Dynamic vapor sorption (DVS) hygroscopicity; assay type: physicochemical; settings: 25° C.
Method: DVS measurements were performed with a SMS—DVS Intrinsic. The sample size was about 50 mg, accurately weighed. The measurement was performed at 25° C., the relative humidity (RH) range investigated was 40-90-0-90% RH with 10% RH steps. After each RH change, the mass of the sample was allowed to stabilize (waiting time 10 to 60 minutes, stabilization criterion ≤0.002 g for 10 minutes). The hygroscopicity of the sample was calculated as follows: [formula] • where: • W1: weight of sample at the start of the experiment (25° C. and 40% RH) • W2: weight of sample at 25° C. and 80% RH in the first sorption cycle High Pressure Liquid Chromatography (HPLC)

[2] = Polymorph screening: slurry with sonication; assay type: physicochemical; settings: sonicated 15 minutes then 5° C. for 30 minutes, 6 cycles
Method: Around 15 mg of NaCDC Form B was weighed into HPLC vials and 0.4 mL of corresponding solvents were added at RT. The slurries were sonicated for 15 minutes and then left to cool at 5° C. for 30 minutes—this cycle was repeated 6 times. At the end of the sixth cycle, all experiments were air-dried on filter paper and the recovered solids were analyzed by XRPD. Based on the XRPD data, some experiments were analyzed by HPLC.

[3] = Heating of solid at 315° C. / 360° C., then XRPD and HPLC; assay type: physicochemical
Method: Based on the results obtained from the TG/DSC analysis, a sample of NaCDC Form B was heated at 315° C. and another sample at 360° C. After heating, the samples were cooled to room temperature and analyzed by XRPD (FIG. 16). […] The material obtained after heating a sample at 360° C. was amorphous.

[4] = assay type: physicochemical; settings: pH 7.4
Method: Solubility curve measurements of NaCDC Form A and Form B were performed using a Crystal16 automatic crystallizer (Technobis Crystallization Systems), having an array of 16 microreactors equipped with turbidimeters for the determination of clear and cloud points. Samples of four different concentrations for each crystalline form were prepared by weighing accurately different amounts of each sample and adding 1000 μL of phosphate buffer (pH 7.4) to each vial. The suspensions thus obtained were stirred using a magnetic stirrer and heated from 0° C. to 90° C. at 0.5° C./min. The clear point for each sample was determined and plotted to obtain a crystallization curve (FIG. 13).

[5] = assay type: physicochemical; settings: RT
Method: HPLC analysis was carried out on an Agilent 1260 Infinity chromatograph, using a Hichrom C18 column 100×4.6 mm, 3.5 m, at 40° C. Method details were as follows: [table] Photostability of NaCDC Form B was evaluated by exposing it in solid state and in MeOH solutions to UV 254 nm light for 48 hours in clear, amber, and aluminum foil wrapped vials. The solutions were prepared by weighing around 10 mg NaCDC Form B and mixing it with 500 μL MeOH. The solids and solutions were sampled after 48 hours and analyzed by HPLC, in order to assess degradation. In parallel, XRPD analysis was performed on the recovered solids.

hygroscopicity by DVS [1]: slightly hygroscopic
weight change in the first sorption cycle (DVS) ([1]; 40% RH to 80% RH): 0.8%
HPLC purity (%) at 212 nm ([2]; SLS03, Ethyl acetate (EtOAc)): 90.42%
HPLC purity (%) at 212 nm ([2]; SLS08, EtOH:MeCN (1:1 v/v)): 79.23%
HPLC purity (%) at 212 nm ([2]; SLS09, EtOH:n-Heptane (1:1 v/v)): 89.68%
XRPD after heating ([3]; heated at 360° C.): amorphous
HPLC purity after heating ([3]; sample heated at 315° C., cooled to room temperature): 66.9%
solubility compared to NaCDC Form A (solubility curve) [4]: slightly higher solubility
HPLC (%) at 212 nm, after 48h ([5]; ST01: UV 254 nm, solid, clear vial): 94.4%
HPLC (%) at 212 nm, after 48h ([5]; ST02: UV 254 nm, solid, amber vial): 95.0%
HPLC (%) at 212 nm, after 48h ([5]; ST03: UV 254 nm, solid, control - dark): 95.4%
HPLC (%) at 212 nm, after 48h ([5]; ST04: UV 254 nm, MeOH solution, clear vial): 91.4%
HPLC (%) at 212 nm, after 48h ([5]; ST05: UV 254 nm, MeOH solution, amber vial): 91.0%
HPLC (%) at 212 nm, after 48h ([5]; ST06: UV 254 nm, MeOH solution, control - dark): 94.2%
SMILES: C[C@H](CCC(=O)[O-])[C@H]1CC[C@H]2[C@@H]3[C@H](O)C[C@@H]4C[C@H](O)CC[C@]4(C)[C@H]3CC[C@]12C.[Na+] [Form B, sodium chenodeoxycholate]
XRPD after heating ([3]; heated at 315° C.): different diffractogram than the starting material
